Like-named read-outs stand apart in the source and are kept apart here.
System: interleukin-8 secreted by normal human epidermal keratinocytes (NHEKs)
Assay: Inhibition of interleukin-8 secretion by NHEK cells after stimulation with PMA as irritant agent
Assay type: cell-based
Settings: 160 nM PMA
Text: Inhibition of the response of superficial epidermal cells to an irritant agent by assay of the interleukin-8 secreted by normal human epidermal keratinocytes (NHEKS) after stimulation with phorbol 12-myristate 13-acetate (PMA) as irritant agent.
This study uses the test developed by Wilmer [Wilmer, J. L. et al., J. invest. Dermatol., 102: 915-922 (1994)]. This test allows the evaluation of the antiirritant potential of various molecules, on a human keratinocyte (NHEK) cell line. In this test, an irritant situation is mimicked by exacerbating the production of IL-8 of the NHEKs by adding PMA to the culture medium, IL-8 being involved in initiating the keratinocyte irritation. The antiirritant effect of a molecule is then measured by means of its inhibitory action with respect to this exacerbated production.
Normal human epidermal keratinocytes (NHEKs) sold by the company Clonetics and distributed in France by the company TEBU are incubated in the presence of 160 nM of PMA for 24 hours at 37° C. In response to the PMA, the production of the chemotactic agent interleukin-8 (IL-8) is measured by enzymatic assay using an assay kit (Elisa D8050) sold by the company R&D. The absorbance values are measured using a microplate reader (MRX/Dynatech) according to the procedures supplied with the assay kit. To evaluate the antiirritant protective effect of the various compounds, the production of the chemotactic marker IL-8 by the human keratinocytes is measured in the presence of various concentrations of the test compound.
The results are expressed as a percentage of the control values after subtracting the background noise and as a percentage of inhibition of these values obtained in the presence of the compounds.

[1] = Study No. 2 (Comparative Tests), compound at 10 μM, same batch of NHEK cells, 24 hours, read-out: % inhibition of secretion of IL-8

SMILES	inhibition at 10 µM [1]	inhibition at 1 µM (Study No. 1, compound at 1 μM, NHEK, 24 hours at 37° C., read-out: % inhibition of secretion of IL-8 (at 1 μM))	inhibition at 10 µM (Study No. 1, compound at 10 μM, NHEK, 24 hours at 37° C., read-out: % inhibition of secretion of IL-8 (at 10 μM))
c1ccc(-c2ncn(CCCN3CCCCC3)c2-c2ccccc2)cc1 [Example 6]	41%		
COC(=O)CCCCn1cnc(-c2ccccc2)c1-c1ccccc1 [Example 2, methyl (4,5-diphenyl-imidazole)-1-ylbutyl-4-carboxylate]	10%		
O=C1c2ccccc2C(=O)N1CCCn1cnc(-c2ccccc2)c1-c1ccccc1 [Example 4, 3-phthalimidepropyl-(4,5-diphenyl-imidazol)-1-yl]	37%		
O=C1c2ccccc2C(=O)N1CCCCn1cnc(-c2ccccc2)c1-c1ccccc1 [Example 3, 4-phthalimidebutyl-(4,5-diphenyl-imidazol)-1-yl]	39%		
COC(=O)CCCn1cnc(-c2ccccc2)c1-c1ccccc1 [Example 5, methyl (4,5-diphenyl-imidazol)-1-ylpropyl-3-carboxylate]	22%		
c1ccc(-c2ncn(CCCN3CCOCC3)c2-c2ccccc2)cc1 [Example 1, 4-[3-(4,5-diphenylimidazol-1-yl)-propyl]morpholine]	35%	86%	95%
c1ccc(-c2ncn(CCN3CCCCC3)c2-c2ccccc2)cc1 [JP 44 029 199, reference compound]	< 10%		

From patent US20040162328A1, “Compounds of the family of 3-alkyl-(4,5-diphenyl-imidazol-1-yl) and their use as soothing agents” (priority 2001, published 2004)
